# Activity calls are given as the source filed them. No cut-off for these calls is given here.
# Assays:
# Assay type in all cases: functional, cell-based
# RAW264.7 [1] = experiment: Effect on HSP70 mRNA level in Mus musculus (mouse) RAW264.7 cells pretreated for 1 hr before treatment with 100 ng/ml LPS for 6 hr by RT-PCR analysis
# RAW264.7 [2] = experiment: Inhibition of LPS-induced TLR4 expression in Mus musculus (mouse) RAW264.7 cells pretreated for 1 hr before treatment with 100 ng/ml LPS for 6 hr by Western blot analysis
# RAW264.7 [3] = experiment: Inhibition of LPS-induced TLR4 expression in Mus musculus (mouse) RAW264.7 cells pretreated for 1 hr before treatment with 100 ng/ml LPS for 6 hr by RT-PCR analysis
# RAW264.7 [4] = experiment: Effect on HSP70 protein level in Mus musculus (mouse) RAW264.7 cells pretreated for 1 hr before treatment with 100 ng/ml LPS for 6 hr by RT-PCR analysis
# RAW264.7 [5] = experiment: Inhibition of LPS-induced IL-6 level in Mus musculus (mouse) RAW264.7 cells pretreated for 1 hr before treatment with 100 ng/ml LPS for 6 hr by ELISA
# RAW264.7 [6] = experiment: Inhibition of LPS-induced TNF-alpha level in Mus musculus (mouse) RAW264.7 cells pretreated for 1 hr before treatment with 100 ng/ml LPS for 6 hr by ELISA
smiles,measurement,setting,value
CC(C)[C@]12O[C@H]1[C@@H]1O[C@]13[C@]1(O[C@H]1C[C@H]1C4=C(CC[C@@]13C)C(=O)OC4)[C@@H]2O,Activity,RAW264.7 [1],inactive
same,inhibition,RAW264.7 [2],Dose-dependent effect
same,inhibition,RAW264.7 [3],Dose-dependent effect
same,Activity,RAW264.7 [4],inactive
same,inhibition,RAW264.7 [5],Dose-dependent effect
same,inhibition,RAW264.7 [6],Dose-dependent effect
